Bridge positions count the residues as written; N and C are the ends. Square brackets hold non-standard residues; d marks the D form. 2Nal = N[C@@H](Cc1ccc2ccccc2c1)C(=O)O; Cit = NC(=O)NCCC[C@H](N)C(=O)O Bounds are passed on as bounds.

Among the data in paper PMC3521869 (Journal of medicinal chemistry, 2012) are fraction unbound values, retold here.

The data set is described as follows: Fraction bound to serum proteins. As to conditions: human. Type of data set: in vitro ADME.

As a reminder, the fraction unbound is the share of the substance not bound to proteins or other matrix. Substance “cyclo([2Nal]CY[Cit]KVCPKILQRCRRDSDCPGACICRGNGYCGSYR[Cit]CRG[dP]RR) (disulfide 2-38, 7-24, 14-26, 20-32) [MCo-CVX-5c]” returned a fraction unbound below 0.01.
